Laboratory results as given in ChEMBL document CHEMBL4020759, “Sulfoximines as ATR inhibitors: Analogs of VE-821” (2017).
Activity calls are given as the source filed them. No cut-off for these calls is given here.

Legend:
[1] = biological target: Serine/threonine-protein kinase ATR (Homo sapiens) (UniProt Q13535); assay: Inhibition of ATR in human U2OS cells assessed as reduction in etoposide-induced Chk-1 phosphorylation at Ser345 residue at 10 uM preincubated for 1 hr followed by etoposide challenge measured after 20 mins by Western blot analysis; format: cell-based
Chain of Serine/threonine-protein kinase ATR (Homo sapiens) (Q13535 whole entry, looked up): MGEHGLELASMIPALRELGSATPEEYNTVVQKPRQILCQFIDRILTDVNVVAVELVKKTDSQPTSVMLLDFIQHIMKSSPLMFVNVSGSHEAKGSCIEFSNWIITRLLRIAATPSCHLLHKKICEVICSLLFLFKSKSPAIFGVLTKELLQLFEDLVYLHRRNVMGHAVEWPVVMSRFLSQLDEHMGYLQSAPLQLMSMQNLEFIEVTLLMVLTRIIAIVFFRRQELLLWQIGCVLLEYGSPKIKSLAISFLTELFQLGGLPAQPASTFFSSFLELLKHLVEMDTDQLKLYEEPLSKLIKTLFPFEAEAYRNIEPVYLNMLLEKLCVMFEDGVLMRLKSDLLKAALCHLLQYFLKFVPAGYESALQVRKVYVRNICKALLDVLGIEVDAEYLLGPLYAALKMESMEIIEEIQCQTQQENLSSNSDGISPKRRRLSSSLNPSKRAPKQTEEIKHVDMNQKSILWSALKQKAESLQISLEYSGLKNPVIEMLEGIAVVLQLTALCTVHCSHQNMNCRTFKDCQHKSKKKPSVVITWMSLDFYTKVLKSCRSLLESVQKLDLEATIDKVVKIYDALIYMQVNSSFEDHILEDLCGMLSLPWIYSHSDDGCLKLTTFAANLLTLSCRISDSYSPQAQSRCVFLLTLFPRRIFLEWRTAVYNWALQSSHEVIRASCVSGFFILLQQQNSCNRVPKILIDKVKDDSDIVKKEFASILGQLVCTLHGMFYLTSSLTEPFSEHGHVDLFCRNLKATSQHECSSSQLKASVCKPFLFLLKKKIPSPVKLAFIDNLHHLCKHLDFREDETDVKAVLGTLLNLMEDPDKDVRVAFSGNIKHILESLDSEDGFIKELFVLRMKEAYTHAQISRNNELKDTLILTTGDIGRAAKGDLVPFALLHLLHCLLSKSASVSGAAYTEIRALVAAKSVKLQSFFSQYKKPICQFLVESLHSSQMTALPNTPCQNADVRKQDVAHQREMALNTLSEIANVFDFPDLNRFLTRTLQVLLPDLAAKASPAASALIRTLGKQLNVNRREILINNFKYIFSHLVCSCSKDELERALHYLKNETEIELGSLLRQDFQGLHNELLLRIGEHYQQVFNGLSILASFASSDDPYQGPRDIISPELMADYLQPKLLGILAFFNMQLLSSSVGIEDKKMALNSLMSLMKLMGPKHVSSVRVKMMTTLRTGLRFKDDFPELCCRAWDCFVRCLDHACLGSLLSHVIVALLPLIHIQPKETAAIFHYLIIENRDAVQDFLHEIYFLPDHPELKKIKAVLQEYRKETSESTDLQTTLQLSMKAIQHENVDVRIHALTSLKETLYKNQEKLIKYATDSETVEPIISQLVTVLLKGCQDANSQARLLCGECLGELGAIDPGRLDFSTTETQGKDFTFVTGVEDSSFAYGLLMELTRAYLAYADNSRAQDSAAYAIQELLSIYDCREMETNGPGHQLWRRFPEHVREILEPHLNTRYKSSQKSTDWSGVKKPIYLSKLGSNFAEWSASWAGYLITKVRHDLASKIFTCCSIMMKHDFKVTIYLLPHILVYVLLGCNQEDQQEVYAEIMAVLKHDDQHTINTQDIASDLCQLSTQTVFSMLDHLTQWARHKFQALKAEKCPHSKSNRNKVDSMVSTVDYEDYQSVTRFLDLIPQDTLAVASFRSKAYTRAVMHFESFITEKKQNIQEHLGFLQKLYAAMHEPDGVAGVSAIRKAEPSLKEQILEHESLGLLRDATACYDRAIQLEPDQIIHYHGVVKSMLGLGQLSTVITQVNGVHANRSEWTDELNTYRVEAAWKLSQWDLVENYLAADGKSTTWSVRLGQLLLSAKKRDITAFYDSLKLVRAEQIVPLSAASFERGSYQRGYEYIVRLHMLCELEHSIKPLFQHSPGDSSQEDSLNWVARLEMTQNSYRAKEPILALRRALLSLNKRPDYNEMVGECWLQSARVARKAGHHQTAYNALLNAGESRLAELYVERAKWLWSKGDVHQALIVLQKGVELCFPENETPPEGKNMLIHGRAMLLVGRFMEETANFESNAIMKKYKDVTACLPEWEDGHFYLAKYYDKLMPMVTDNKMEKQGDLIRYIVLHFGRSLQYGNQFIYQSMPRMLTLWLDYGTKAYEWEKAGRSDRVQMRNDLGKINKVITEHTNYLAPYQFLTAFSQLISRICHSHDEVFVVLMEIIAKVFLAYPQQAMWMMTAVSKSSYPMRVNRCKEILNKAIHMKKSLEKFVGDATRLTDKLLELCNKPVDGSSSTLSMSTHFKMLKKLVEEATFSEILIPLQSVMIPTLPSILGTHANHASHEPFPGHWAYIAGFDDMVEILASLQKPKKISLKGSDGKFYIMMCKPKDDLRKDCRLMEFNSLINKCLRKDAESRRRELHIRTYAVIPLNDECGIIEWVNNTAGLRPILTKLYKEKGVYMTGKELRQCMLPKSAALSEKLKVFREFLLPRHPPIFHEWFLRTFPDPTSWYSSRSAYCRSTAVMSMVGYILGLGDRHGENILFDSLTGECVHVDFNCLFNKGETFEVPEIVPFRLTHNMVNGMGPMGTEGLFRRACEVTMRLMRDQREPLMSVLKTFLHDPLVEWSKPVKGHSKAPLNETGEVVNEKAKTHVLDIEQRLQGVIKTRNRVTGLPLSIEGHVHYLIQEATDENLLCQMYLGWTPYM

[2] = biological target: Serine-protein kinase ATM (Homo sapiens) (UniProt Q13315); assay: Inhibition of ATM in human U2OS cells assessed as reduction in hydroxyurea-induced Chk-2 phosphorylation at Thr68 residue at 10 uM preincubated for 1 hr followed by hydroxyurea challenge measured after 1 hr by Western blot analysis; format: cell-based
[3] = biological target: Serine/threonine-protein kinase ATR (Homo sapiens) (UniProt Q13535); assay: Inhibition of ATR in human Ramos cells assessed as reduction in […] at 10 uM after 48 hrs by Western blot analysis; format: cell-based
K562 = assay: Growth inhibition of human K562 cells assessed as cell growth at 10 uM incubated for 48 hrs by sulforhodamine B assay; format: functional; settings: K562, 48 h, read-out: Activity
MOLT-4 = assay: Growth inhibition of human MOLT4 cells assessed as cell growth at 10 uM incubated for 48 hrs by sulforhodamine B assay; format: functional; settings: MOLT-4, 48 h, read-out: Activity
RPMI-8226 = assay: Growth inhibition of human RPMI8226 cells assessed as cell growth at 10 uM incubated for 48 hrs by sulforhodamine B assay; format: functional; settings: RPMI-8226, 48 h, read-out: Activity
EKVX = assay: Growth inhibition of human EKVX cells assessed as cell growth at 10 uM incubated for 48 hrs by sulforhodamine B assay; format: functional; settings: read-out: Activity
HOP-62 = assay: Growth inhibition of human HOP62 cells assessed as cell growth at 10 uM incubated for 48 hrs by sulforhodamine B assay; format: functional; settings: HOP-62, 48 h, read-out: Activity
HOP-92 = assay: Growth inhibition of human HOP92 cells assessed as cell growth at 10 uM incubated for 48 hrs by sulforhodamine B assay; format: functional; settings: HOP-92, 48 h, read-out: Activity
NCI-H226 = assay: Growth inhibition of human NCI-H226 cells assessed as cell growth at 10 uM incubated for 48 hrs by sulforhodamine B assay; format: functional; settings: NCI-H226, 48 h, read-out: Activity
COLO 205 = assay: Growth inhibition of human COLO205 cells assessed as cell growth at 10 uM incubated for 48 hrs by sulforhodamine B assay; format: functional; settings: COLO 205, 48 h, read-out: Activity
HCC 2998 = assay: Growth inhibition of human HCC2998 cells assessed as cell growth at 10 uM incubated for 48 hrs by sulforhodamine B assay; format: functional; settings: HCC 2998, 48 h, read-out: Activity
HCT-116 = assay: Growth inhibition of human HCT116 cells assessed as cell growth at 10 uM incubated for 48 hrs by sulforhodamine B assay; format: functional; settings: HCT-116, 48 h, read-out: Activity
HCT-15 = assay: Growth inhibition of human HCT15 cells assessed as cell growth at 10 uM incubated for 48 hrs by sulforhodamine B assay; format: functional; settings: HCT-15, 48 h, read-out: Activity
HT-29 = assay: Growth inhibition of human HT-29 cells assessed as cell growth at 10 uM incubated for 48 hrs by sulforhodamine B assay; format: functional; settings: HT-29, 48 h, read-out: Activity
SF-268 = assay: Growth inhibition of human SF268 cells assessed as cell growth at 10 uM incubated for 48 hrs by sulforhodamine B assay; format: functional; settings: SF-268, 48 h, read-out: Activity
SF-295 = assay: Growth inhibition of human SF295 cells assessed as cell growth at 10 uM incubated for 48 hrs by sulforhodamine B assay; format: functional; settings: SF-295, 48 h, read-out: Activity
SF-539 = assay: Growth inhibition of human SF539 cells assessed as cell growth at 10 uM incubated for 48 hrs by sulforhodamine B assay; format: functional; settings: SF-539, 48 h, read-out: Activity
SNB-19 = assay: Growth inhibition of human SNB19 cells assessed as cell growth at 10 uM incubated for 48 hrs by sulforhodamine B assay; format: functional; settings: SNB-19, 48 h, read-out: Activity
LOX IMVI = assay: Growth inhibition of human LOXIMVI cells assessed as cell growth at 10 uM incubated for 48 hrs by sulforhodamine B assay; format: functional; settings: read-out: Activity
Malme-3M = assay: Growth inhibition of human MALME-3M cells assessed as cell growth at 10 uM incubated for 48 hrs by sulforhodamine B assay; format: functional; settings: read-out: Activity
SK-MEL-28 = assay: Growth inhibition of human SK-MEL-28 cells assessed as cell growth at 10 uM incubated for 48 hrs by sulforhodamine B assay; format: functional; settings: SK-MEL-28, 48 h, read-out: Activity
OVCAR-8 = assay: Growth inhibition of human OVCAR8 cells assessed as cell growth at 10 uM incubated for 48 hrs by sulforhodamine B assay; format: functional; settings: OVCAR-8, 48 h, read-out: Activity
NCI/ADR-RES = assay: Growth inhibition of human NCI/ADR-RES cells assessed as cell growth at 10 uM incubated for 48 hrs by sulforhodamine B assay; format: functional; settings: read-out: Activity
ACHN = assay: Growth inhibition of human ACHN cells assessed as cell growth at 10 uM incubated for 48 hrs by sulforhodamine B assay; format: functional; settings: read-out: Activity
CAKI-1 = assay: Growth inhibition of human Caki1 cells assessed as cell growth at 10 uM incubated for 48 hrs by sulforhodamine B assay; format: functional; settings: CAKI-1, 48 h, read-out: Activity
SN12C = assay: Growth inhibition of human SN12C cells assessed as cell growth at 10 uM incubated for 48 hrs by sulforhodamine B assay; format: functional; settings: read-out: Activity
DU-145 = assay: Growth inhibition of human DU145 cells assessed as cell growth at 10 uM incubated for 48 hrs by sulforhodamine B assay; format: functional; settings: DU-145, 48 h, read-out: Activity
MCF7 = assay: Growth inhibition of human MCF7 cells assessed as cell growth at 10 uM incubated for 48 hrs by sulforhodamine B assay; format: functional; settings: MCF7, 48 h, read-out: Activity
MDA-MB-231 = assay: Growth inhibition of human MDA-MB-231 cells assessed as cell growth at 10 uM incubated for 48 hrs by sulforhodamine B assay; format: functional; settings: MDA-MB-231, 48 h, read-out: Activity
[4] = biological target: Serine/threonine-protein kinase ATR (Homo sapiens) (UniProt Q13535); assay: Inhibition of ATR in human U2OS cells assessed as reduction in hydroxyurea-induced Chk-1 phosphorylation at Ser345 residue by measuring ratio of GAPDH level to phosphorylated Chk-1 level at 3 uM preincubated for 1 hr followed by hydroxyurea challenge measured after 2 hrs by Western blot analysis; format: cell-based
[5] = biological target: Serine/threonine-protein kinase ATR (Homo sapiens) (UniProt Q13535); assay: Inhibition of ATR in human U2OS cells assessed as reduction in hydroxyurea-induced Chk-1 phosphorylation at Ser345 residue by measuring ratio of GAPDH level to phosphorylated Chk-1 level at 10 uM preincubated for 1 hr followed by hydroxyurea challenge measured after 2 hrs by Western blot analysis; format: cell-based
[6] = biological target: Serine/threonine-protein kinase ATR (Homo sapiens) (UniProt Q13535); assay: Inhibition of ATR in human U2OS cells assessed as reduction in hydroxyurea-induced H2AX phosphorylation at Ser139 residue at 3 to 10 uM preincubated for 1 hr followed by hydroxyurea challenge measured after 2 hrs by Western blot analysis; format: cell-based

| SMILES | inhibition [1] | inhibition [2] | inhibition [3] | growth at 10 µM (K562) [%] | growth at 10 µM (MOLT-4) [%] | growth at 10 µM (RPMI-8226) [%] | growth at 10 µM (EKVX) [%] | growth at 10 µM (HOP-62) [%] | growth at 10 µM (HOP-92) [%] | growth at 10 µM (NCI-H226) [%] | growth at 10 µM (COLO 205) [%] | growth at 10 µM (HCC 2998) [%] | growth at 10 µM (HCT-116) [%] | growth at 10 µM (HCT-15) [%] | growth at 10 µM (HT-29) [%] | growth at 10 µM (SF-268) [%] | growth at 10 µM (SF-295) [%] | growth at 10 µM (SF-539) [%] | growth at 10 µM (SNB-19) [%] | growth at 10 µM (LOX IMVI) [%] | also measured |
| --- | --- | --- | --- | --- | --- | --- | --- | --- | --- | --- | --- | --- | --- | --- | --- | --- | --- | --- | --- | --- | --- |
| C/S(=N\C#N)c1ccc(-c2cnc(N)c(C(=O)Nc3ccccc3)n2)cc1 (stereo unspecified) | Active | inactive | Active | 62.2 | 74.5 | 101 | 107 | 110 | 93.4 | 88.5 | 76.9 | 109 | 73.1 | 64.2 | 76.3 | 88.4 | 114 | 85.7 | 104 | 77.8 | growth at 10 µM (Malme-3M): 80%; growth at 10 µM (SK-MEL-28): 97.4%; growth at 10 µM (OVCAR-8): 102%; growth at 10 µM (NCI/ADR-RES): 108%; growth at 10 µM (ACHN): 54%; growth at 10 µM (CAKI-1): 53.2%; growth at 10 µM (SN12C): 82.4%; growth at 10 µM (DU-145): 80.3%; growth at 10 µM (MCF7): 75.7%; growth at 10 µM (MDA-MB-231): 101%; Ratio [4]: 40.1; Ratio [5]: 22.5; inhibition [6]: Dose-dependent effect |
| CS(=O)(=NC#N)c1ccc(-c2cnc(N)c(C(=O)Nc3ccccc3)n2)cc1 (stereo unspecified) | Active | inactive | Active | 70.8 | 64.7 | 105 | 88.1 | 97 | 106 | 92 | 88.3 | 105 | 86.8 | 63.2 | 79.9 | 87.7 | 99.2 | 69 | 105 | 66.5 | growth at 10 µM (Malme-3M): 127%; growth at 10 µM (SK-MEL-28): 111%; growth at 10 µM (OVCAR-8): 96.8%; growth at 10 µM (NCI/ADR-RES): 96.9%; growth at 10 µM (ACHN): 51.4%; growth at 10 µM (CAKI-1): 47.2%; growth at 10 µM (SN12C): 78.8%; growth at 10 µM (DU-145): 75.6%; growth at 10 µM (MCF7): 45.5%; growth at 10 µM (MDA-MB-231): 102%; Ratio [4]: 58.1; Ratio [5]: 43.1; inhibition [6]: Dose-dependent effect |
